Assays:
[1] = relative to benzoapyrene; Nisbet and Lagoy 1992; cited from earlier work
Mussel = details: chronic toxicity data, PAN Pesticide Database and EPA EcoTox Database; cited from earlier work
Frog = details: chronic toxicity data, PAN Pesticide Database and EPA EcoTox Database; cited from earlier work
Barbel fish = details: chronic toxicity data, PAN Pesticide Database and EPA EcoTox Database; cited from earlier work
Green algae = details: chronic toxicity data, PAN Pesticide Database and EPA EcoTox Database; cited from earlier work
Daphnia magna = details: chronic toxicity data, PAN Pesticide Database and EPA EcoTox Database; cited from earlier work
[2] = test system: 95% of species in the protected water ecological system; assay: Calculation of HC5 from log-transformed NOEC data; details: HC5=exp(Xm-KLSm), six species, KL 1.81
From the text: (3) calculating benzoapyrene concentration values HC5 of 95% of species in the protected water ecological system: i.e., performing logarithmic transformation on the toxicity data and applying a formula HC5=exp(Xm−KLSm)′ to calculate, wherein m is the number of species, Xm means the arithmetic mean value of the toxicity data of the m species after the logarithmic transformation; Sm means the standard deviation of the toxicity data of the m species after the logarithmic transformation; and KL is a regulation factor, obtained from literature;
(3) Calculating the benzoapyrene concentration values HC5 of 95% of species in the protected water ecological system: logarithmic transformation is performed on the toxicity data in Table 1 to obtain that the arithmetic mean value Xm 3.77 ug/L and the standard deviation Sm 4.95 ug/L, and calculation is conducted using a formula HC5=exp(Xm−KLSm)i, wherein the regulation factor KL is 1.81 (from published literature: Aldenberg and Slob, Confidence limits for hazardous concentrations based on logistically distributed NOEC toxicity data, 1991), and the HC5 value is obtained as 0.0056 ug/L.

[3] = test system: water ecological system of the lake; assay: Ecological risk quotient, Monte Carlo sampling (10,000 times); details: single pollutant, water body of the lake
From the text: (5) calculating ecological risk quotient values RQi of specific polycyclic aromatic hydrocarbon pollutants: calculating according to a formula
[formula] wherein ECi is the environmental concentration of an i^th polycyclic aromatic hydrocarbon pollutant, TEFi is a toxic equivalency factor of the i^th polycyclic aromatic hydrocarbon pollutant relative to the benzoapyrene, and a concrete numerical value is from literature, and HC5 is the benzoapyrene concentration values of 95% of species in the protected water ecological system; conducting random sampling for 10,000 times using a Monte Carlo sampling method according to the concentration distribution characteristics of different polycyclic aromatic hydrocarbons; and drawing cumulative probability distribution curves of the ecological risk quotient values of each polycyclic aromatic hydrocarbon pollutant according to the Monte Carlo sampling result, and analyzing the probability that the risk quotient values thereof RQi are no less than one; and
(6) calculating the total ecological risk quotient value RQt of each polycyclic aromatic hydrocarbon pollutant: calculating according to a formula […]

Chironomidae = details: chronic toxicity data, PAN Pesticide Database and EPA EcoTox Database; cited from earlier work

Row | SMILES | Toxic equivalency factor [1] | further results
1 | c1cc2c3c(cccc3c1)CC2 [Ace] | 0.001 | 
2 | C1=Cc2cccc3cccc1c23 [Acy] | 0.001 | 
3 | c1ccc2cc3ccccc3cc2c1 [Ant, anthracene] | 0.01 | 
4 | c1ccc2c(c1)cc1ccc3cccc4ccc2c1c34 [B[a]P, benzoapyrene] | 1 | NOEC (Mussel): 500 µg/L; NOEC (Frog): 10 µg/L; NOEC (Barbel fish): 54.2 µg/L; NOEC (Green algae): 250000 µg/L; NOEC (Daphnia magna): 0.02 µg/L; HC5 (concentration value of 95% of species in the protected water ecological system) [2]: 0.0056 ug/L; probability of the risk quotient value RQi greater than or equal to one [3]: 54.4%; NOEC (Chironomidae): 5 µg/L
5 | c1ccc2c(c1)-c1cccc3c1c-2cc1ccccc13 [B[b]F] | 0.1 | 
6 | c1cc2ccc3ccc4ccc5cccc6c(c1)c2c3c4c56 [B[ghi]P] | 0.01 | 
7 | c1ccc2cc3c(cc2c1)-c1cccc2cccc-3c12 [B[k]F] | 0.1 | 
8 | c1ccc2c(c1)ccc1c3ccccc3ccc21 [Chr] | 0.01 | 
9 | c1ccc2c(c1)ccc1cc3c(ccc4ccccc43)cc12 [DBA] | 1 | probability of the risk quotient value RQi greater than or equal to one [3]: 61.8%
10 | c1ccc2c(c1)-c1ccc3ccc4cccc5cc-2c1c3c45 [Ind] | 0.1 | 
11 | c1ccc2ccccc2c1 [Nap] | 0.001 | 

Reference: patent US10156556B2, “Method for determining ecological risks of polycyclic aromatic hydrocarbon in water body” (priority 2013, dated 2018)
